What follows are compounds tested against STAT3 (Homo sapiens, UniProt P40763) (assay: Western blot of the 46 Table 1 compounds in Hodgkin lymphoma cell lines L540 and HDLM-2). Settings: L540 and HDLM-2.
Type: cell-based
Set-up: endogenous in cells; host or cells: L540, HDLM-2, U87-MG, MDA-MB-231, further human glioblastoma and breast cancer lines
Protocol: The human cancer cell lines used in the experiment were U87-MG (human malignant glioblastoma) and MDA-MB-231 (human malignant breast cancer) cell lines, and various kinds of human-derived blood and solid cancer cells including these human cancer cell lines were cultured as previously described (Jung J E, et al. FASEB J. 19, 1296-1298 (2005)). The human Hodgkin lymphoma cancer cell lines L540 and HLDM-2 used in the experiment were obtained from the German Collection of Microorganism and Cell Cultures (DSMZ, Germany) and cultured using RPMI 1640 medium containing 20% FBS in a 5% CO2 incubator at a temperature of 37° C.
Western blot analysis was performed (Jung J E, et al. FASEB J. 19, 1296-1298 (2005)). The cells were washed two times with PBS and suspended in the lysate (50 mM Tris-HCl, pH 7.4, 350 mM NaCl, 1% Triton X-100, 0.5% Nonidet P-40, 10% glycerol, 0.1% SDS, 1 mM EDTA, 1 mM EGTA, 1 mM Na3VO4, 1 mM PMSF, protease and phosphorylation inhibitor) and the cell membrane and nuclear membrane were crushed to lyse the cells. The insoluble protein fraction was removed by centrifugation, and the supernatant was mixed with SDS electrophoresis buffer and electrophoresis (SDS-PAGE) was performed to detect the protein with the desired antibody and to confirm the protein expression level.

Chain of STAT3 (P40763 whole entry): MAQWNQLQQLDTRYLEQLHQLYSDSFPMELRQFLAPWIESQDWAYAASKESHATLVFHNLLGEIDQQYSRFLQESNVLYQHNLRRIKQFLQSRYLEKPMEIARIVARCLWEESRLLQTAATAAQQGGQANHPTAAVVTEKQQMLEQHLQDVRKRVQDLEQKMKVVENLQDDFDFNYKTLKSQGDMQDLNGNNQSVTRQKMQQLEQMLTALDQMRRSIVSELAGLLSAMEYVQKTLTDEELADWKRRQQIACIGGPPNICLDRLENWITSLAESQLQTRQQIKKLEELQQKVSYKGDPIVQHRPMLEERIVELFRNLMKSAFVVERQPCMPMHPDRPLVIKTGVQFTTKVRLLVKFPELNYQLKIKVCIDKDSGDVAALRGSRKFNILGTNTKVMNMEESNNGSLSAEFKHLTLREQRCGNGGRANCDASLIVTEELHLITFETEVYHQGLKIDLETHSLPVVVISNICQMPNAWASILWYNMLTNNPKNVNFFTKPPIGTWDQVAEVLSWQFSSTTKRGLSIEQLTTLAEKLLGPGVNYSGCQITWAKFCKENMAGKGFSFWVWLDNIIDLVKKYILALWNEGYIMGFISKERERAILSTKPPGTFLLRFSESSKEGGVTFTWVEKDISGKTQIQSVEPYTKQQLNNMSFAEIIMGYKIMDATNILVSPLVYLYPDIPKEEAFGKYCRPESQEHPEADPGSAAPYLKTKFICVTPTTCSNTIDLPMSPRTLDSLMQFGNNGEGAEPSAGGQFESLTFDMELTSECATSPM

**Q.** With Cl.Cl.NCCc1nc2ccccc2c(=O)[nH]1.O [compound 1, 2-(2-aminoethyl)-4(3H)-quinazolinone dihydrochloride hydrate] as the compound, how does the “STAT3 inhibitory efficacy, first screening” value read?
**A.** Its value is “judged to exert superior STAT3 inhibitory efficacy”.

**Q.** Which “STAT3 inhibitory efficacy, first screening” value does the source give for O=S(=O)(NCCc1nc2ccccc2[nH]1)c1ccccc1 [compound 4, N-[2-(lH-benzimidazol-2-yl)ethyl]benzenesulfonamide] here?
**A.** The value was “judged to exert superior STAT3 inhibitory efficacy”.

**Q.** For O=C1NCSC1=Cc1ccccc1O [compound 5, 5-(2-hydroxybenzylidene)-l,3-thiazolidin-4-one], which “STAT3 inhibitory efficacy, first screening” value is on record?
**A.** Its value is “judged to exert superior STAT3 inhibitory efficacy”.

**Q.** For O=S(=O)(NCc1nc2ccccc2[nH]1)c1ccccc1 [compound 6, N-(1H-benzimidazol-2-ylmethyl)benzenesulfonamide], which “STAT3 inhibitory efficacy, first screening” value is on record?
**A.** Its value is “judged to exert superior STAT3 inhibitory efficacy”.

**Q.** How did the “STAT3 inhibitory efficacy, first screening” value turn out when O=C(O)C1Cc2c([nH]c3ccccc23)C(c2ccc(O)cc2)N1 (stereo not drawn) [compound 8, l-(4-hydroxyphenyl)-2,3,4,9-tetrahydro-lH-beta-carboline-3-carboxylic acid] was run?
**A.** The value was “judged to exert superior STAT3 inhibitory efficacy”.

**Q.** With O=C(Nc1nc(O)nc(C=Cc2ccccc2)n1)NS(=O)(=O)c1ccccc1Cl [compound 9, 2-chloro-N-({[4-hydroxy-6-(2-phenylvinyl)-l,3,5-triazin-2-yl]amino]carbonyl)benzenesulfonamide] as the compound, how does the “STAT3 inhibitory efficacy, first screening” value read?
**A.** The value was “judged to exert superior STAT3 inhibitory efficacy”.

**Q.** For O=C(O)c1cccc(NS(=O)(=O)c2cccc(C(F)(F)F)c2)c1 [compound 11, 3-({[3-(trifluoromethyl)phenyl]sulfonyl}amino)benzoic acid], which “STAT3 inhibitory efficacy, first screening” value is on record?
**A.** Its value is “judged to exert superior STAT3 inhibitory efficacy”.

**Q.** For O=S(=O)(NCc1nc2ccccc2[nH]1)c1ccc(Cl)cc1 [compound 14, N-(1H-benzimidazol-2-ylmethyl)-4-chlorobenzenesulfonamide], which “STAT3 inhibitory efficacy, first screening” value is on record?
**A.** The value was “judged to exert superior STAT3 inhibitory efficacy”.

**Q.** With CC1CN(Cc2nc3c([nH]2)c(=O)[nH]c(=O)n3C)CC(C)O1 (stereo not drawn) [compound 16, 8-[(2,6-dimethyl-4-morpholinyl)methyl]-3-methyl-3,7-dihydro-lH-purine-2,6-dione] as the compound, how does the “STAT3 inhibitory efficacy, first screening” value read?
**A.** The value was “judged to exert superior STAT3 inhibitory efficacy”.

**Q.** For CC(CNCc1nc2ccccc2[nH]1)c1ccccc1 (stereo not drawn) [compound 18, (1H-benzimidazol-2-ylmethyl)(2-phenylpropyl)amine], which “STAT3 inhibitory efficacy, first screening” value is on record?
**A.** Its value is “judged to exert superior STAT3 inhibitory efficacy”.

**Q.** For CCS(=O)(=O)Nc1cccc(C2=NN(S(C)(=O)=O)C(c3cccc(F)c3)C2)c1 (stereo not drawn) [compound 19, N-{3-[5-(3-fluorophenyl)-l-(methylsulfonyl)-4,5-dihydro-lH-pyrazol-3-yl]phenyl}ethanesulfonamide], which “STAT3 inhibitory efficacy, first screening” value is on record?
**A.** Its value is “judged to exert superior STAT3 inhibitory efficacy”.

**Q.** With O=S(=O)(NCc1nc2ccccc2[nH]1)c1ccc(Cl)c(Cl)c1 [compound 20, N-(lH-benzimidazol-2-ylmethyl)-3,4-dichlorobenzenesulfonamide] as the compound, how does the “STAT3 inhibitory efficacy, first screening” value read?
**A.** The value was “judged to exert superior STAT3 inhibitory efficacy”.

**Q.** With O=C(Nc1ccc(C(=O)N2CCNC2=O)cc1)c1cccs1 [compound 21, N-{4-[(2-oxo-l-imidazolidinyl)carbonyl]phenyl}-2-thiophenecarboxamide] as the compound, how does the “STAT3 inhibitory efficacy, first screening” value read?
**A.** Its value is “judged to exert superior STAT3 inhibitory efficacy”.

**Q.** O=C(Nc1ccc(C(=O)N2CCNC2=O)cc1)c1ccccc1 [compound 22, N-{4-[(2-oxo-l-imidazolidinyl)carbonyl]phenyl}benzamide] was tested. Which “STAT3 inhibitory efficacy, first screening” value did it give?
**A.** Its value is “judged to exert superior STAT3 inhibitory efficacy”.

**Q.** With O=C(COc1ccc(Cl)cc1S(=O)(=O)NC1CC1)N1CCOCC1 [compound 23, 5-chloro-N-cyclopropyl-2-[2-(4-morpholinyl)-2-oxoethoxy]benzenesulfonamide] as the compound, how does the “STAT3 inhibitory efficacy, first screening” value read?
**A.** Its value is “judged to exert superior STAT3 inhibitory efficacy”.

**Q.** How did the “STAT3 inhibitory efficacy, first screening” value turn out when NC(=O)c1cc(S(=O)(=O)Nc2ccc(O)cc2)cs1 [compound 24, 4-{[(4-hydroxyphenyl)amino]sulfonyl}-2-thiophenecarboxamide] was run?
**A.** The value was “judged to exert superior STAT3 inhibitory efficacy”.

**Q.** For O=C1CN(C(=O)C=Cc2ccccc2)CCN1 [compound 27, 4-cinnamoyl-2-piperazinone], which “STAT3 inhibitory efficacy, first screening” value is on record?
**A.** Its value is “judged to exert superior STAT3 inhibitory efficacy”.

**Q.** For Cc1ccccc1NC(=O)c1cccc(NS(C)(=O)=O)c1 [compound 28, N-(2-methylphenyl)-3-((methylsulfonyl)amino]benzamide], which “STAT3 inhibitory efficacy, first screening” value is on record?
**A.** The value was “judged to exert superior STAT3 inhibitory efficacy”.

**Q.** With O=C(Nc1ccc(F)cc1)Nc1cccc(C(=O)NCc2ccccc2)c1 [compound 29, N-benzyl-3-({[(4-fluorophenyl)amino]carbonyl}amino)benzamide] as the compound, how does the “STAT3 inhibitory efficacy, first screening” value read?
**A.** Its value is “judged to exert superior STAT3 inhibitory efficacy”.

**Q.** CC(C)(C)NC(=O)c1cccc(NC(=O)Nc2ccccc2)c1 [compound 30, 3-[(anilinocarbonyl)amino]-N-(tert-butyl)benzamide] was tested. Which “STAT3 inhibitory efficacy, first screening” value did it give?
**A.** The value was “judged to exert superior STAT3 inhibitory efficacy”.

**Q.** Cc1ccc(S(=O)(=O)NCCc2nc3ccccc3[nH]2)cc1 [compound 31, N-[2-(1H-benzimidazol-2-yl)ethyl]-4-methylbenzenesulfonamide] was tested. Which “STAT3 inhibitory efficacy, first screening” value did it give?
**A.** The value was “judged to exert superior STAT3 inhibitory efficacy”.

**Q.** Cc1ccc(S(=O)(=O)NCc2nc3ccccc3[nH]2)cc1 [compound 32, N-(1H-benzimidazol-2-ylmethyl)-4-methylbenzenesulfonamide] was tested. Which “STAT3 inhibitory efficacy, first screening” value did it give?
**A.** The value was “judged to exert superior STAT3 inhibitory efficacy”.

**Q.** Which “STAT3 inhibitory efficacy, first screening” value does the source give for CS(=O)(=O)Nc1cccc(C(=O)NCc2ccncc2)c1 [compound 33, 3-[(methylsulfonyl)amino]-N-(4-pyridinylmethyl)benzamide] here?
**A.** Its value is “judged to exert superior STAT3 inhibitory efficacy”.

**Q.** For Brc1cc2c(cc1CSc1nc3cccnc3[nH]1)OCO2 [compound 34, 2-{[(6-bromo-l,3-benzodioxol-5-yl)methyl]thio}-3H-imidazo[4,5-b]pyridine], which “STAT3 inhibitory efficacy, first screening” value is on record?
**A.** Its value is “judged to exert superior STAT3 inhibitory efficacy”.

**Q.** With O=C(O)[C@@H]1CCCN1S(=O)(=O)c1ccc2[nH]c(=O)c(=O)[nH]c2c1 [compound 35, l-[(2,3-dioxo-l,2,3,4-tetrahydro-6-quinoxalinyl)sulfonyl]proline] as the compound, how does the “STAT3 inhibitory efficacy, first screening” value read?
**A.** Its value is “judged to exert superior STAT3 inhibitory efficacy”.

**Q.** For CCc1ccc(OC)c(S(=O)(=O)Nc2cccc(O)c2)c1 [compound 36, 5-ethyl-N-(3-hydroxyphenyl)-2-methoxybenzenesulfonamide], which “STAT3 inhibitory efficacy, first screening” value is on record?
**A.** The value was “judged to exert superior STAT3 inhibitory efficacy”.

**Q.** OCCCNc1nc(Nc2cccc(O)c2)nc2ccccc12 [compound 37, 3-({4-[(3-hydroxypropyl)amino]-2-quinazolinyl}amino)phenol] was tested. Which “STAT3 inhibitory efficacy, first screening” value did it give?
**A.** Its value is “judged to exert superior STAT3 inhibitory efficacy”.

**Q.** For O=C(Nc1ccc(Cc2ccc(NC(=O)C(c3ccccc3)c3ccccc3)c(O)c2)cc1O)C(c1ccccc1)c1ccccc1 [compound 38, N,N′-[methylenebis(2-hydroxy-4,1-phenylene)]bis(2,2-diphenylacetamide)], which “STAT3 inhibitory efficacy, first screening” value is on record?
**A.** The value was “judged to exert superior STAT3 inhibitory efficacy”.

Same assay, conditions: L540 and HDLM-2, 50 μM

**Q.** With OCCCNc1nc(Nc2cccc(O)c2)nc2ccccc12 [compound 37, 3-({4-[(3-hydroxypropyl)amino]-2-quinazolinyl}amino)phenol] as the compound, how does the “STAT3 inhibitory efficacy, secondary screening” value read?
**A.** Its value is “judged to exert superior STAT3 inhibitory efficacy”.

Same assay, conditions: L540 and HDLM-2, various concentrations

**Q.** For OCCCNc1nc(Nc2cccc(O)c2)nc2ccccc12 [compound 37, 3-({4-[(3-hydroxypropyl)amino]-2-quinazolinyl}amino)phenol], which “phosphorylation of STAT tyrosine 705” value is on record?
**A.** Its value is “significantly inhibited the phosphorylation of STATdml tyrosine 705 in a concentration-dependent manner”.

Source: patent US20200354327A1, “COMPOUND HAVING STAT3 INHIBITORY ACTIVITY AND USE THEREOF” (CYTUS H&B CO., LTD., priority 2017, published 2020)
